For assay [1], the system named is Pseudomonas aeruginosa strain H1001. In words: Assay for the cleaved (free, soluble) peptides from cellulose support, luminescence killing assay. Type of assay: cell-based. More on the design: key: 1: Peptides showing stronger killing than Bac2A at a 4 to 8-fold higher dilution; Peptides showing stronger killing compared to that of Bac2A at a 4-fold higher dilution; 3: Peptides similar to Bac2A; 4: Peptides similar to Bac2A at the highest concentration but demonstrating weaker killing at a 2-fold dilution; 5: Peptides giving very weak or no killing at a 2-fold dilution; 6: Peptides with weak killing activity at the highest concentration. The note with it: free (cleaved) peptides, killing relative to Bac2A. On the procedure:
Assay for the cleaved peptides from cellulose support. The peptides were cleaved from the dried membrane in an ammonia atmosphere overnight, resulting in free peptides with an amidated C-terminus. The free peptides contained two β-alanines at the C-terminus, in addition to being amidated due to the linker between the cellulose membrane and the peptide sequence. The peptide spots were punched out and transferred in a 96-well microtiter plate. Serial dilutions were carried out from the membrane spots. Four rows were filled with four controls including two with Bac2A and two with of an unrelated peptide. The other eight rows were used for serial dilution steps of the peptide variants. An overnight culture of Pseudomonas aeruginosa strain H1001 was diluted 1:500 using either LB media or 100 mM Tris buffer pH 7.3, 20 mM glucose and was added to the wells (100 μl/well) containing the peptide spots. In all other wells 50 μl were added. The microtiter plate was incubated for 30 min at 37° C. to release the peptides from the membrane. Subsequently, a dilution series were performed and the plate was incubated at 37° C. The luminescence produced by the ATP dependent luciferase system were detected in a time dependent manner using a Tecan Spectra Fluor plus.
(§1) Strains. For the killing assay a mini-Tn5-lux mutant in Pseudomonas aeruginosa H103 was used. The strain is called H1001 and contains a fliC::luxCDABE transcriptional fusion resulting in constitutive expression of luciferase. The bacterial strains used for the antimicrobial activity assays included Escherichia coli UB1005 (F-, nalA37, metB1), a wild-type Salmonella enterica ssp. Typhimurium (S. Typhimurium), wild-type Pseudomonas aeruginosa PAO1 strain H103, Enterococcus faecalis ATCC29212, Staphylococcus aureus ATCC25923, and a clinical isolate of Staphylococcus epidermidis obtained from Dr. D. Speert (Department of Medicine, University of British Columbia). Antifungal activity was tested using a lab isolate of Candida albicans obtained from Dr. B. Dill (Department of Microbiology and Immunology, University of British Columbia).
Peptide synthesis on cellulose is a very effective and inexpensive way to investigate many different peptide variants for one particular activity. However, one of the problems of this technique is the low peptide density synthesized on the membrane, about 280 nmol per cm2. An average peptide spot used for the experiments presented is about 0.3 cm2. Therefore, an assay had to be developed that was sensitive enough to show activity with this amount of peptides. P. aeruginosa H1001 has a reporter system (e.g., a luciferase gene cassette) incorporated into the bacterial chromosome in the fliC gene (involved in flagellar biosynthesis) that is constitutively expressed. It will thus produce light if ATP is present. When this strain is killed, e.g. by peptides, the amount of light produced will decrease due to a decrease in ATP levels in the killed cells. This action can thus be monitored by detecting luminescence in a microtiter plate luminescence reader over time. The volume and amount of cells per well were optimized for this assay. After screening, the killing action was monitored with small amounts of the parent peptide Bac2A (2 μg/ml of free peptide).
Forty-nine scrambled peptides (Bac002-Bac050) were synthesized on the cellulose support and then cleaved by ammonia gas resulting in free peptides with an amidated C-terminus including the linker. The peptide spots were transferred to a 96-well microtiter plate and incubated for 30 min to dissociate the peptides from the cellulose. After serial dilution and addition of strain H1001, luminescence was recorded in a time dependent manner (FIG. 1). All 50 scrambled peptides were compared to Bac2A ([…]-NH2; SEQ ID NO: 1) by this assay (see Table 2). […] Further since all scrambled peptides had some activity, a sequence-specific interaction of the peptides with a receptor or target could be excluded.

For assay [2], the system named is Pseudomonas aeruginosa strain H1001 fliC::luxCDABE. In words: Luminescence-based assay for the non-cleaved (bound) peptides on cellulose membranes. Type of assay: cell-based. The note with it: for Luminescence at the given time in minutes: 0 / Luminescence at the given time in minutes: 20 / Luminescence at the given time in minutes: 40 / Luminescence at the given time in minutes: 60 / Luminescence at the given time in minutes: 80 / Luminescence at the given time in minutes: 100 / Luminescence at the given time in minutes: 120 / Luminescence at the given time in minutes: 180 / Luminescence at the given time in minutes: 240: cellulose-bound peptide; for Luminescence at the given time in minutes: 0: 0 min; for Luminescence at the given time in minutes: 20: 20 min; for Luminescence at the given time in minutes: 40: 40 min; for Luminescence at the given time in minutes: 60: 60 min; for Luminescence at the given time in minutes: 80: 80 min; for Luminescence at the given time in minutes: 100: 100 min; for Luminescence at the given time in minutes: 120: 120 min; for Luminescence at the given time in minutes: 180: 180 min; for Luminescence at the given time in minutes: 240: 240 min; for Activity Class bound: uncleaved cellulose-bound peptides. On the procedure: Luminescence-based MIC assay for the non-cleaved peptides on cellulose membranes. The peptide spots were punched out and transferred to a 96 well microtiter plate with a clear polystyrene bottom and opaque white polypropylene sides (PerkinElmer, Boston, USA). The spots were washed two times with 100% ethanol for 5 min and afterwards equilibrated five times with 100 mM Tris buffer pH 7.3 for 5 min. An overnight culture of Pseudomonas aeruginosa strain H1001 fliC::luxCDABE was diluted 1:50 in new MH medium and incubated at 37° C. to an OD600 of 0.35. This bacterial culture was diluted 1:25 into 10 mM Tris-HCl buffer, pH 7.3 containing 20 mM glucose. Fifty μl of this culture was added to all wells of the microtiter plate and incubated at 37° C. The luminescence of the strain produced by the ATP-dependent luciferase system was detected in a time dependent manner using a Tecan Spectra Fluor plus (Tecan, Austria). At the end of the experiment, the membranes were cleaned by washing the spots two times with 100% ethanol for five minutes. After removing the ethanol the membrane was air-dried.
as §1
The same set of peptides, as well as the reversed sequence of Bac2A-R ([…]; SEQ ID NO: 2166), were synthesized on cellulose and left uncleaved. The production of light was initially compared in wells containing spots of Bac2A, Bac2A-R (with the reversed sequence of Bac2A), the unrelated negative-control peptide, or, as additional controls, only cellulose, or only bacteria (FIG. 2).
As a control, the negative control (unrelated) peptide Bac429 and parent peptide Bac2A (=Bac001) were used in several different wells of the microtiter plate. Luminescence (relative light units; RLU) was measured at 14 different time points, 9 of which are shown. To permit comparison of the data with the free peptide data set, the result for each peptide was classified into six different groups, like the data set with the free peptides (Table 2). […] For the soluble peptides the following classes were established: […]

On to ILVARVIRRRVA [Bac019], for which the “Activity Class Soluble” value in assay [1] is 5. Further, in assay [2], the “Luminescence at the given time in minutes: 0” value (from here on “Luminescence … in minutes: 0”) is on record as 5239 RLU, the “Luminescence at the given time in minutes: 20” value (“Luminescence … in minutes: 20” below) is reported as 7569 RLU, the “Luminescence at the given time in minutes: 40” value (“Luminescence … in minutes: 40” below) amounted to 5731 RLU and the “Luminescence at the given time in minutes: 60” value (“Luminescence … 60” below) is listed as 4741 RLU. In addition, in assay [2], the “Luminescence at the given time in minutes: 80” value (“Luminescence … in minutes: 80” below) is given as 3822 RLU, the “Luminescence at the given time in minutes: 100” value (“Luminescence … 100” below) is 3000 RLU, the “Luminescence at the given time in minutes: 120” value (“Luminescence … 120” for short) is recorded as 2373 RLU and the “Luminescence at the given time in minutes: 180” value (from here on “Luminescence … 180”) is given as 1908 RLU. Further, in assay [2], the “Luminescence at the given time in minutes: 240” value (from here on “Luminescence … 240”) came out at 1570 RLU and the “Activity Class bound” value is 5 (Peptides reducing luminescence (lux) values to between 1500 to 3000 after 240 min.).
Take ILVIVRRRARAV [Bac042]: in assay [1], the “Activity Class Soluble” value was 3. In addition, in assay [2], the “Luminescence … in minutes: 0” value is 5171 RLU, the “Luminescence … in minutes: 20” value came to 6703 RLU, the “Luminescence … in minutes: 40” value is on record as 4453 RLU and the “Luminescence … 60” value turned out to be 2128 RLU. Further, in assay [2], the “Luminescence … in minutes: 80” value turned out to be 746 RLU, the “Luminescence … 100” value turned out to be 244 RLU, the “Luminescence … 120” value was 86 RLU and the “Luminescence … 180” value was determined as 49 RLU. Further, in assay [2], the “Luminescence … 240” value worked out at 52 RLU and the “Activity Class bound” value was 3 (Peptides similar to Bac2A resulting in lux values of less than 500 after 240 min.).
With IRARIAVRRVVL [Bac004], the “Activity Class Soluble” value in assay [1] turned out to be 3. Also, in assay [2], the “Luminescence … in minutes: 0” value stood at 3773 RLU, the “Luminescence … in minutes: 20” value is given as 6547 RLU, the “Luminescence … in minutes: 40” value was determined as 5008 RLU and the “Luminescence … 60” value amounted to 4405 RLU. For the same sequence, in assay [2], the “Luminescence … in minutes: 80” value was 3805 RLU, the “Luminescence … 100” value is 3125 RLU, the “Luminescence … 120” value was found to be 2753 RLU and the “Luminescence … 180” value came out at 2459 RLU. Further, in assay [2], the “Luminescence … 240” value was 2607 RLU and the “Activity Class bound” value is 5 (Peptides reducing luminescence (lux) values to between 1500 to 3000 after 240 min.).
Regarding IRVRRLVAAVIR [Bac033], the “Activity Class Soluble” value in assay [1] was found to be 5. Further, in assay [2], the “Luminescence … in minutes: 0” value is on record as 4795 RLU, the “Luminescence … in minutes: 20” value turned out to be 6539 RLU, the “Luminescence … in minutes: 40” value is listed as 4785 RLU and the “Luminescence … 60” value came out at 4155 RLU. Also, in assay [2], the “Luminescence … in minutes: 80” value amounted to 3565 RLU, the “Luminescence … 100” value is 3095 RLU, the “Luminescence … 120” value is reported as 2639 RLU and the “Luminescence … 180” value amounted to 2613 RLU. In assay [2], the “Luminescence … 240” value is 2962 RLU and the “Activity Class bound” value is 5 (Peptides reducing luminescence (lux) values to between 1500 to 3000 after 240 min.).
IVRVAVALRRIR [Bac005]: in assay [1], the “Activity Class Soluble” value stood at 3. Besides, in assay [2], the “Luminescence … in minutes: 0” value is given as 3853 RLU, the “Luminescence … in minutes: 20” value came out at 6844 RLU, the “Luminescence … in minutes: 40” value is on record as 5163 RLU and the “Luminescence … 60” value came to 4287 RLU. In assay [2], the “Luminescence … in minutes: 80” value was 3443 RLU, the “Luminescence … 100” value turned out to be 2254 RLU, the “Luminescence … 120” value is recorded as 1891 RLU and the “Luminescence … 180” value turned out to be 1665 RLU. For the same sequence, in assay [2], the “Luminescence … 240” value is on record as 1791 RLU and the “Activity Class bound” value was 5 (Peptides reducing luminescence (lux) values to between 1500 to 3000 after 240 min.).
Turning to LAIVRRARVRIV [Bac031], the “Activity Class Soluble” value in assay [1] worked out at 5. Further, in assay [2], the “Luminescence … in minutes: 0” value stood at 4646 RLU, the “Luminescence … in minutes: 20” value was determined as 7357 RLU, the “Luminescence … in minutes: 40” value amounted to 5808 RLU and the “Luminescence … 60” value was found to be 5146 RLU. Further, in assay [2], the “Luminescence … in minutes: 80” value is listed as 4145 RLU, the “Luminescence … 100” value is listed as 3815 RLU, the “Luminescence … 120” value was found to be 3472 RLU and the “Luminescence … 180” value amounted to 3130 RLU. In assay [2], the “Luminescence … 240” value came to 3247 RLU and the “Activity Class bound” value is listed as 6 (Peptides having residual luminescence (lux) values greater than 3000 after 240 min.).
Take RAIIRRVLVRVA [Bac024]: the “Activity Class Soluble” value in assay [1] amounted to 4. In assay [2], the “Luminescence … in minutes: 0” value is 4164 RLU, the “Luminescence … in minutes: 20” value is reported as 7630 RLU, the “Luminescence … in minutes: 40” value turned out to be 5586 RLU and the “Luminescence … 60” value came to 4358 RLU. In assay [2], the “Luminescence … in minutes: 80” value is reported as 3256 RLU, the “Luminescence … 100” value is listed as 2398 RLU, the “Luminescence … 120” value is 1727 RLU and the “Luminescence … 180” value is recorded as 1384 RLU. For the same sequence, in assay [2], the “Luminescence … 240” value is 1373 RLU and the “Activity Class bound” value was 4 (Peptides reducing luminescence (lux) values to between 500 to 1499 after 240 min.).
Consider RAIRVRRIVLAV [Bac037], for which the “Activity Class Soluble” value in assay [1] is recorded as 4. Also, in assay [2], the “Luminescence … in minutes: 0” value is 4908 RLU, the “Luminescence … in minutes: 20” value is 6480 RLU, the “Luminescence … in minutes: 40” value turned out to be 4105 RLU and the “Luminescence … 60” value was 1624 RLU. Further, in assay [2], the “Luminescence … in minutes: 80” value worked out at 366 RLU, the “Luminescence … 100” value is 120 RLU, the “Luminescence … 120” value turned out to be 54 RLU and the “Luminescence … 180” value was 59 RLU. Besides, in assay [2], the “Luminescence … 240” value is 46 RLU and the “Activity Class bound” value was 3 (Peptides similar to Bac2A resulting in lux values of less than 500 after 240 min.).

These data come from patent US20080207522A1, “Antimicrobial Peptides” (priority 2004, published 2008).
